Measured values: US20050249675A1, “Mucin synthesis inhibitors” (priority 2003, published 2005)
“Also recorded” adds a separate entry of the source. Where two headings read alike, the source gives them in different places.

Legend:
[1] = tested on: mice sensitized to Aspergillus fumigatus; assay: Aspergillus fumigatus murine asthma model, talniflumate chow; assay type: in vivo; conditions: oral; for Lung eosinophilia by bronchoalveolar lavage: talniflumate chow, vs sensitized mice fed standard chow
NCI-H292/hCLCA1 cells = assay: AB/PAS staining of mucous glycoconjugates in NCI-H292/hCLCA1 cells; assay type: cell-based, human; conditions: NFA 100 μM, MFA 125 or 250 μM, talniflumate 12.5, 25 or 50 μM; vs untreated cells
Method: For the determination of mucous glycoconjugate production, NCI-H292/ctl and NCI-H292/hCLCA1 (AAF 15) cells were cultured in 24-well plates for 3 days. Cells were then fixed with Formalin and mucous glycoconjugates were visualized by AB/PAS staining (Sigma). […] For chloride channel blockage studies, cells were cultured in the presence of niflumic acid (NFA) (Sigma) at 100 μM concentration, mefanamic acid (MFA) at 125 or 250 μM or talniflumate at 12.5, 25 or 50 μM, or media alone.
For the determination of mucous glycoconjugate production, NCI-H292/hCLCA1 cells were cultured in 24-well plates for 3 days with at concentrations of 0 to 150 μM of the talniflumate enantiomers or media alone (control). Cells were then fixed with Formalin and mucous glycoconjugates were visualized by AB/PAS staining (Sigma). […] In this assay both enantiomers were seen to inhibit muco-glycoconjugate production at concentrations>40 μM.

[2] = tested on: MUC5A/C secretion in hCLCA1 expressing H292 cells; assay: MUC5A/C secretion by ELLA in hCLCA1 expressing H292 cells; assay type: cell-based, human; parameters: key to ELLA: (+) = inhibition; (−) = no inhibition
H292 clone 15 cells [3] = assay: ELLA for MUC5AC, H292 clone 15 cells (Example 11); assay type: cell-based, human; conditions: MUC5AC in conditioned media, 48 hours, average of 3 experiments
Method: ELLA (Enzyme-Linked Lectin Assay) was used to determine the inhibitory effect of compounds on mucus production by H292 clone 15 cells. H292 clone 15 cells, a subclone from human pulmonary mucoepidermoid carcinoma cells overexpressing hCLCA1, were grown to confluent, followed by incubation with increasing concentrations of compounds for 48 hours. Conditioned media were collected and MUC5AC (the major secretory mucin in lungs) content was determined by ELLA measurement as described below. 96 well microtiter plates were coated with a mouse monoclonal antibody against human MUC5AC (1-13M1, NeoMarkers), then incubated with test conditioned media. Bound MUC5AC was detected by horseradish peroxidase-conjugated soybean lectin that has a high affinity towards highly-glycosylated proteins such as MUC5AC. Conversion of peroxidase substrate TMB (Tetramethylbenzidine Base) was quantified by reading at 450 nm. O.D. (optical density) readings were plotted against concentrations of compounds. Linear regression was used to derive the concentration at which O.D. was reduced by 50% (IC50) when compared to vehicle-treated cells.

[4] = tested on: CF mice (CF knock-out mice and CF AF508 mice); assay: CF mice body weight and survival on talniflumate chow; assay type: in vivo; conditions: approximate dose of 100 mg/kg per os in chow
Method: Within two weeks of weaning, the osmotic agent treatment was discontinued and the mice were either placed on talniflumate containing chow or control chow. The CF mice consuming control chow lost 10-15% body weight and died (CF knock-out) or were euthanized (CF AF508) due to the animal's moribund state within 7 days post-osmotic agent. In contrast, the CF mice that consumed talniflumate (approximate dose of 100 mg/kg per os) gained 8-12% body weight and survived at least 26 days, at which time they were sacrificed to evaluate histopathology (see FIG. 20).

MUC2 = assay type: cell-based; conditions: LTA from S. aureus; FIG. 22
[5] = target: T1, human chloride channel hCLCA1 (Homo sapiens, UniProt A8K7I4); assay: Patch clamp chloride current, NCI-H292 cell expressing hCLCA1; assay type: cell-based; conditions: 5 micromolar talniflumate; 2 μM ionomycin and 2 mM calcium; positive voltage
T1 construct: expressed in transfected cells; host or cells: NCI-H292 (human pulmonary mucoepidermoid carcinoma)
T1 sequence (A8K7I4 22-914): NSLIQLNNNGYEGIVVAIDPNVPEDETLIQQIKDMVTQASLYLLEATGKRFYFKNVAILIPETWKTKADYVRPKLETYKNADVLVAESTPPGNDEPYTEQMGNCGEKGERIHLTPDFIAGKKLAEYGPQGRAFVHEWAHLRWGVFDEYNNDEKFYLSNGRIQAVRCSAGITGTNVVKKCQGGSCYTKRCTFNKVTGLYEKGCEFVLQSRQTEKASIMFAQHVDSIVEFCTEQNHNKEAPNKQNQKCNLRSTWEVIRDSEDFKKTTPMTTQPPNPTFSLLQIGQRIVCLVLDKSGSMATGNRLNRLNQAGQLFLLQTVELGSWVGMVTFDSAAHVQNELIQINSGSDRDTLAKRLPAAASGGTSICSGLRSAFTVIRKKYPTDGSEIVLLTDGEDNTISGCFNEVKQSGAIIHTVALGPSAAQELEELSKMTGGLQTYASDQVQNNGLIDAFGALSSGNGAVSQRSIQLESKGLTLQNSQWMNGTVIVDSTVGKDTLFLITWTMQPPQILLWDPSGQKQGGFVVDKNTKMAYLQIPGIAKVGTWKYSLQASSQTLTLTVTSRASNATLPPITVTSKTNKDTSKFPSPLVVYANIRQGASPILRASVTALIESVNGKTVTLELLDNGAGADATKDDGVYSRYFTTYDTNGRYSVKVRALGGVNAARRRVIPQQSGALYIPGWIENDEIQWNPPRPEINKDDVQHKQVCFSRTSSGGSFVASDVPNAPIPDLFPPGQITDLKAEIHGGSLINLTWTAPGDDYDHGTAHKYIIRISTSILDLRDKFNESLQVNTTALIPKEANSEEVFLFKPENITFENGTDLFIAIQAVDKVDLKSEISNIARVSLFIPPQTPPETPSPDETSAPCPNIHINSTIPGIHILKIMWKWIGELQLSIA
Method: An NCI-H292 cell transfected with a plasmid expressing the human chloride channel hCLCA1 was patch clamped and chloride current (I) was measured over a range of voltages (V). Substantial chloride current was invoked by the addition of 2 μM ionomycin and 2 mM calcium (circles) compared to baseline (squares), indicating activation of hCLCA1.

H292 clone 15 cells [6] = assay: Alamar Blue cytotoxicity; conditions: for Est. LD50 (Alamar Blue): H292 clone 15 cells, 48 hours, average of 3 experiments
Muc5b = assay: Inhibition of Muc5b expression; assay type: cell-based; parameters: key: (+) = inhibition; (−) = no inhibition; conditions: Table 2
Method: The effects of talniflumate derivatives on mucin production were also assayed for changes in ELLA and IC50 (Table 2) as described in the methods above.

[7] = tested on: activated Caco2 cell line; assay: Viability of activated Caco2 cells; assay type: cell-based; conditions: even higher concentrations of NFA; FIG. 3
activated LHL4 cells = assay: Eotaxin ELISA, activated LHL4 cells; assay type: cell-based; conditions: increasing concentrations
Method: Activated LHL4 cells that express and secrete eotaxin have been produced and used to test for inhibitors of eotaxin production. These cells were assayed in vitro for eotaxin by an ELISA technique well known in the art (R&D Systems).

[8] = tested on: mice sensitized by nasal aspiration of Aspergillus fumigatus antigen; assay: Aspergillus fumigatus antigen murine asthma model, intra-tracheal NFA; assay type: in vivo; conditions: 100 μg NFA intra-tracheal, days 0-21
IL9 transgenic mice = assay: Mucin production in lungs of IL9 transgenic mice; assay type: in vivo; conditions: IT once daily for three days; NFA 100 μg
Method: Certified virus-free male and female IL9 transgenic mice (IL9TG5-FVB/N) 5-6 weeks of age were bred in our laboratories. Male and female FVB/N mice 5-6 weeks of age were purchased from Jackson Laboratories (Bar Harbor Me.). Animals were housed in high-efficiency, particulate filtered air and allowed free access to food and water for 3 to 7 days prior to experimental manipulation. The animal facilities were maintained at 22° C. and the light:dark cycle was automatically controlled (10:14 hour light:dark).
Animals were phenotyped, naïve, or 24 hrs after receiving intra-tracheal (IT) shame (vehicle) treatment, or drugs in the same vehicle as was used in identically treated controls. Mice were treated IT once daily for three days. NFA (100 μg) or antibody to IL-9 were administered in PBS IT. Treatment responses were measured by the assessment of mucin inhibition by histologic exam (PAS staining of greater than 10 sections through the treated and control lungs or western blots of MUC 1, MUC2 and MUC3 expression from the same lungs.
The up-regulation of mucus production in the IL9 transgenic is specifically associated with increased steady-state mRNA levels of MUC2 and MUC5AC as shown by RT-PCR (FIG. 9).

activated Caco2 cells = assay: PAS staining for mucin in activated Caco2 cells; conditions: activated Caco2 cells; 100 μm for NFA and 300 μm for DIDS; vs untreated cells

SMILES: O=C1OC(OC(=O)c2cccnc2Nc2cccc(C(F)(F)F)c2)c2ccccc21 (racemic) [Talniflumate, talniflumate]
- Lung eosinophilia by bronchoalveolar lavage [1]: reduced the number of eosinophilic cells
- Lung eosinophilia by bronchoalveolar lavage ([1]; listed as talniflumate): inhibition of lung eosinophilia
- Mucin (PAS) staining in lung ([1]; talniflumate containing chow, Asp-sens mice): reduced mucin staining; also recorded: inhibition of mucin over production
- PAS positive staining muco-glycoconjugates (NCI-H292/hCLCA1 cells): significantly fewer positive staining muco-glycoconjugates
- Inhibition of MUC5A/C secretion / mucin production (figure legends) [2]: inhibition of mucin production
- IC50 ([2]; Homo sapiens, NCI-H292/hCLCA1 cells, 0 through 150 μM, 48 hours, FIG. 26, read-out: IC50, inhibition of MUC5A/C secretion): 36 µM
- IC50 (H292 clone 15 cells [3]; Homo sapiens, NCI-H292): 33 µM
- Body weight gain [4]: 8-12%
- Survival ([4]; then sacrificed): at least 26 days
- Lipoteichoic acid induction of MUC2 (luciferase RLU) (MUC2): modulated
- Chloride Current [5]: reduction in chloride current
- Est. LD50 (Alamar Blue) (H292 clone 15 cells [6]): 108 µM
- LD50 (Alamar Blue) (H292 clone 15 cells [6]; NCI-H292/hCLCA1 cells, concentrations up to 150 μM, FIG. 27): > 150 µM

SMILES: O=C1OC(CC(=O)c2cccnc2Nc2cccc(C(F)(F)F)c2)c2ccccc21 (stereo not drawn) [4 (MSI 2216)]
- IC50 ([2]; Table 2, ELLA, read-out: IC50): 5 µM
- ELLA ([2]; Table 2, mucin production): +
- IC50 (H292 clone 15 cells [3]): 3 µM
- Inhibition of Muc5b Expression (Muc5b): +
- Est. LD50 (Alamar Blue) (H292 clone 15 cells [6]): 32 µM

SMILES: O=C(O)c1cccnc1Nc1cccc(C(F)(F)F)c1 [NFA, niflumic acid]
- Viability of activated Caco2 cells [7]: not affected; also recorded: did not effect their viability
- Eotaxin production (activated LHL4 cells): Significant inhibition; also recorded: blocks epithelial activation including chemokine production
- Serum IgE levels [8]: no effect
- Antigen-induced airway hyperresponsiveness ([8]; vs PBS): suppress airway hyperresponsiveness; also recorded: suppresses antigen-induced airway hyperresponsiveness
- BAL lung eosinophilia ([8]; vs PBS): suppress; also recorded: reduces antigen-induced lung eosinophilia
- Over-production of mucus in the lung caused by exposure to antigen ([8]; vs PBS): suppress the over-production of mucus; also recorded: blocks increased mucin expression
- Mucin production in IL9 transgenic lungs (IL9 transgenic mice): decreased mucin production
- PAS positive staining muco-glycoconjugates (NCI-H292/hCLCA1 cells): significantly fewer positive staining muco-glycoconjugates
- PAS positive staining mucin glycoconjugates (activated Caco2 cells): significantly fewer positive staining mucin glycoconjugates; also recorded: blocks mucin overproduction in vitro
